Experiments:
[1] = Examination of stability of pemafibrate (open dish storage, related substances by HPLC); assay type: physicochemical
Protocol: 250 mg of pemafibrate was placed in a dish, and stored in an uncapped state (open state) in a dark place at 40° C. and 75% relative humidity (RH) for 3 months.
The sum of related substance-derived peak areas was evaluated in terms of a ratio (%) to the pemafibrate-derived peak area using an HPLC apparatus, and the ratio was defined as the “Total amount (%) of related substances”.

[2] = Hygroscopic property evaluation of pemafibrate crystal (Karl Fischer moisture content); assay type: physicochemical
Protocol: A pemafibrate crystal was produced by recrystallizing pemafibrate from an ethyl acetate/heptane mixture in accordance with the method for producing a pemafibrate crystal as described in Non-Patent Document 1.
250 mg of the pemafibrate crystal was placed in a dish, and stored in an uncapped state (open state) in a dark place at 25° C. and 83% relative humidity (RH) for 3 months. The hygroscopic property was evaluated by measuring the moisture contents before and after the storage. The measurement of the moisture content was performed by a coulometric titration method in accordance with The Japanese Pharmacopoeia, 17th Edition, Moisture Content Measurement Method (Karl Fischer Method).

Row | Total amount (%) of related substances ([1]; After storage at 40° C. and 75% RH for 3 months, open state in dish, dark place) [%] | Total amount (%) of related substances ([1]; Before storage, 250 mg in dish) [%] | Stability against moisture content ([1]; storage at 75% RH for 3 months) | Moisture content (%) ([2]; After storage at 25° C. and 83% RH for 3 months, open state in dish, dark place) | Moisture content (%) ([2]; Before storage, 250 mg in dish) | Hygroscopic property ([2]; storage at 83% RH for 3 months) | SMILES
1 | <0.05 | <0.05 | stable | – | – | – | CC[C@@H](Oc1cccc(CN(CCCOc2ccc(OC)cc2)c2nc3ccccc3o2)c1)C(=O)O [Pemafibrate, (2R)-2-[3-([1,3-Benzoxazol-2-yl[3-(4-methoxyphenoxy)propyl]amino]methyl)phenoxy]butanoic acid]
2 | – | – | – | <0.1 | <0.1 | not hygroscopic | CC[C@@H](Oc1cccc(CN(CCCOc2ccc(OC)cc2)c2nc3ccccc3o2)c1)C(=O)O [Pemafibrate crystal, (2R)-2-[3-([1,3-Benzoxazol-2-yl[3-(4-methoxyphenoxy)propyl]amino]methyl)phenoxy]butanoic acid]
